Source: ChEMBL document CHEMBL1201862, “PubChem BioAssay data set” (2004)
Active and inactive are the calls of the source.

How the values were obtained:
[1] = target: Bcl-2-like protein 10 (Homo sapiens, UniProt Q9HD36); experiment: displacers of TR3 peptide from Bcl-B, primary screen, selectivity assay for Bfl-1 inhibitor project, biochemical, fluorescence polarization, FITC-TR3 peptide (AID 748);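 note: fluorescence polarization from a fluorescein-labelled TR3 peptide binding purified Bcl-B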
[2] = target: Estrogen receptor beta (Homo sapiens, UniProt Q92731); experiment: ERβ–SRC-3 coactivator interaction inhibitors, confirmation, orthogonal assay, biochemical, ELISA, streptavidin-HRP readout (AID 1060)
Sequence of Estrogen receptor beta (Q92731 whole entry): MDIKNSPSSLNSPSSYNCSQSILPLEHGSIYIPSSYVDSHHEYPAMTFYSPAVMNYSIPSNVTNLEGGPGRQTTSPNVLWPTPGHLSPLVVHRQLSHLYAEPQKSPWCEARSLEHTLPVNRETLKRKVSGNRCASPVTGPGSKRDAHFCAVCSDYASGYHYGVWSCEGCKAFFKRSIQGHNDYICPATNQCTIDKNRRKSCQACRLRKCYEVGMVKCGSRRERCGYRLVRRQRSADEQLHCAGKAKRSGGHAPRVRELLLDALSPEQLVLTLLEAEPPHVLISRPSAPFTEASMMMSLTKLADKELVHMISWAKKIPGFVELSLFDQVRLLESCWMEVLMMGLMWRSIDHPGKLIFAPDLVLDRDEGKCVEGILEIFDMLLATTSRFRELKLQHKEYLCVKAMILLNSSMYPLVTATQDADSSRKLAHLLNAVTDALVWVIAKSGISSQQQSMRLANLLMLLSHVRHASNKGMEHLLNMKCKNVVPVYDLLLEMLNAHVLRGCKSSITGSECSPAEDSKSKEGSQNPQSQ

[3] = target: T1, Microphthalmia-associated transcription factor (Homo sapiens, UniProt O75030); experiment: TRPM1 promoter luciferase signal decrease, dose response, MITF inhibitor project, cell-based, SK-MEL-5, cherry-picked, set 3 (AID 493073); assay type: functional
T1 sequence (O75030 whole entry): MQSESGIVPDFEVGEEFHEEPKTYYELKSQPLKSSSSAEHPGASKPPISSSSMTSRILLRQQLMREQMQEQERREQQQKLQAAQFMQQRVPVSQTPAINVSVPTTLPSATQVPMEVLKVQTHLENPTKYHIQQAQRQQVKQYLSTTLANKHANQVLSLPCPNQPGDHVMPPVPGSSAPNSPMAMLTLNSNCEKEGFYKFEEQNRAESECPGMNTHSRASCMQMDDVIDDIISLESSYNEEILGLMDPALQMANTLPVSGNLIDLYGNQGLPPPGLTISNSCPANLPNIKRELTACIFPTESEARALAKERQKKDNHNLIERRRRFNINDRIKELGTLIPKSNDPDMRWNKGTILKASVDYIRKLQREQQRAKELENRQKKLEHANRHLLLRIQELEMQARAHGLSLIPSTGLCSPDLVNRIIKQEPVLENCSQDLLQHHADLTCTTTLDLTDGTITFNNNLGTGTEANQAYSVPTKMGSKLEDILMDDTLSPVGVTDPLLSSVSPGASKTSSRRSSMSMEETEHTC

[4] = cytotoxicity toward NIH3T3 fibroblasts, dose response, counter-screen, cell-based, ATP luminescence, mouse fibroblasts (AID 2010); assay type: functional;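 note: cells exposed to compound for about 90 hours before reading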
[5] = inhibitors of intracellular T. cruzi replication, confirmation, NIH3T3 host cells, beta-gal luminescence (AID 2044); assay type: functional, cell-based;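 note: intracellular parasites grown in NIH/3T3 mouse fibroblasts as host cells; luminescent beta-galactosidase reporter signal from transgenic T. cruzi replicating inside host cells; inhibitors lower the luminescence signal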
[6] = target: T2, Carboxy-terminal domain RNA polymerase II polypeptide A small phosphatase 1 (Homo sapiens, UniProt Q9GZU7); experiment: inhibitors of CTDSP1, concentration-response testing, biochemical assay, absorbance-based, actives from ultra-high-throughput screening (AID 540297); assay type: functional
T2 sequence (Q9GZU7 whole entry): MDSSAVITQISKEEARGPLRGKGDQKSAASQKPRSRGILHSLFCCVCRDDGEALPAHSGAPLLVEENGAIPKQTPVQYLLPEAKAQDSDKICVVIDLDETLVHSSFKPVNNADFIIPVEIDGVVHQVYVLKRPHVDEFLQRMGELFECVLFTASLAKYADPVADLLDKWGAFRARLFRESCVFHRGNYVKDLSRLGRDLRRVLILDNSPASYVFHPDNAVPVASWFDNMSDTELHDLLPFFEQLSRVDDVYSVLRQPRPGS

[7] = target: Induced myeloid leukemia cell differentiation protein Mcl-1 (Homo sapiens, UniProt Q07820); experiment: MCL1-BIM BH3 interaction inhibitors, dose response, biochemical, fluorescence polarization, BIM-BH3 peptide, 1536-well (AID 2217)
Sequence of Induced myeloid leukemia cell differentiation protein Mcl-1 (Q07820 whole entry): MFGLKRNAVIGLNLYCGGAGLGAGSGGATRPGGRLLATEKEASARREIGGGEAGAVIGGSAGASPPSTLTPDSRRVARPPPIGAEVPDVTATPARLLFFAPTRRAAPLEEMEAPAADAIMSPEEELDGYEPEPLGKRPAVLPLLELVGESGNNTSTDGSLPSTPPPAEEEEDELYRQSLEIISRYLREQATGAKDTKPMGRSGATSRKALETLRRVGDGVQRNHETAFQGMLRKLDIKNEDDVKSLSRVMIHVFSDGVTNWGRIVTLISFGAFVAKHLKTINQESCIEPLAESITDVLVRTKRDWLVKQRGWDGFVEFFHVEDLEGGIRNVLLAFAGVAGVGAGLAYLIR

[8] = NIH-3T3 fibroblast cytotoxicity, dose response, cytotoxicity control, cell-based, fluorescence, Alamar Blue, secondary assay (AID 2327); assay type: functional;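 note: NIH-3T3 mouse fibroblasts cultured with fluconazole at 8 µg/mL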
[9] = target: Bcl-2-like protein 1 (Homo sapiens, UniProt Q07817); experiment: BCL-XL inhibitors, dose response, selectivity assay for MCL1 inhibitor project, biochemical, fluorescence polarization, 1536-well (AID 2218)
Sequence of Bcl-2-like protein 1 (Q07817 whole entry): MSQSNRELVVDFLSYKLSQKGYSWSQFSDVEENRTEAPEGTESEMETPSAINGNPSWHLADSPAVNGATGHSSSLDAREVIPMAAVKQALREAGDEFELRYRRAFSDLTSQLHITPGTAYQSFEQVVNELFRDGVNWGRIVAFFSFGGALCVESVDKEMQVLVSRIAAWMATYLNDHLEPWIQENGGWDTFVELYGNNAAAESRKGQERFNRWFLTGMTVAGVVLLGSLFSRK

[10] = target: Ion channel NompC (Danio rerio, UniProt Q7T1G6); experiment: Fluorescence counterscreen assay for TRPML3 agonists: dose response cell-based high-throughput screening assay to identify agonists of the transient receptor potential channel N1 (TRPN1). [Related pubchem assays: 1526, 1424, 1448 ]; assay type: functional
Sequence of Ion channel NompC (Q7T1G6 whole entry): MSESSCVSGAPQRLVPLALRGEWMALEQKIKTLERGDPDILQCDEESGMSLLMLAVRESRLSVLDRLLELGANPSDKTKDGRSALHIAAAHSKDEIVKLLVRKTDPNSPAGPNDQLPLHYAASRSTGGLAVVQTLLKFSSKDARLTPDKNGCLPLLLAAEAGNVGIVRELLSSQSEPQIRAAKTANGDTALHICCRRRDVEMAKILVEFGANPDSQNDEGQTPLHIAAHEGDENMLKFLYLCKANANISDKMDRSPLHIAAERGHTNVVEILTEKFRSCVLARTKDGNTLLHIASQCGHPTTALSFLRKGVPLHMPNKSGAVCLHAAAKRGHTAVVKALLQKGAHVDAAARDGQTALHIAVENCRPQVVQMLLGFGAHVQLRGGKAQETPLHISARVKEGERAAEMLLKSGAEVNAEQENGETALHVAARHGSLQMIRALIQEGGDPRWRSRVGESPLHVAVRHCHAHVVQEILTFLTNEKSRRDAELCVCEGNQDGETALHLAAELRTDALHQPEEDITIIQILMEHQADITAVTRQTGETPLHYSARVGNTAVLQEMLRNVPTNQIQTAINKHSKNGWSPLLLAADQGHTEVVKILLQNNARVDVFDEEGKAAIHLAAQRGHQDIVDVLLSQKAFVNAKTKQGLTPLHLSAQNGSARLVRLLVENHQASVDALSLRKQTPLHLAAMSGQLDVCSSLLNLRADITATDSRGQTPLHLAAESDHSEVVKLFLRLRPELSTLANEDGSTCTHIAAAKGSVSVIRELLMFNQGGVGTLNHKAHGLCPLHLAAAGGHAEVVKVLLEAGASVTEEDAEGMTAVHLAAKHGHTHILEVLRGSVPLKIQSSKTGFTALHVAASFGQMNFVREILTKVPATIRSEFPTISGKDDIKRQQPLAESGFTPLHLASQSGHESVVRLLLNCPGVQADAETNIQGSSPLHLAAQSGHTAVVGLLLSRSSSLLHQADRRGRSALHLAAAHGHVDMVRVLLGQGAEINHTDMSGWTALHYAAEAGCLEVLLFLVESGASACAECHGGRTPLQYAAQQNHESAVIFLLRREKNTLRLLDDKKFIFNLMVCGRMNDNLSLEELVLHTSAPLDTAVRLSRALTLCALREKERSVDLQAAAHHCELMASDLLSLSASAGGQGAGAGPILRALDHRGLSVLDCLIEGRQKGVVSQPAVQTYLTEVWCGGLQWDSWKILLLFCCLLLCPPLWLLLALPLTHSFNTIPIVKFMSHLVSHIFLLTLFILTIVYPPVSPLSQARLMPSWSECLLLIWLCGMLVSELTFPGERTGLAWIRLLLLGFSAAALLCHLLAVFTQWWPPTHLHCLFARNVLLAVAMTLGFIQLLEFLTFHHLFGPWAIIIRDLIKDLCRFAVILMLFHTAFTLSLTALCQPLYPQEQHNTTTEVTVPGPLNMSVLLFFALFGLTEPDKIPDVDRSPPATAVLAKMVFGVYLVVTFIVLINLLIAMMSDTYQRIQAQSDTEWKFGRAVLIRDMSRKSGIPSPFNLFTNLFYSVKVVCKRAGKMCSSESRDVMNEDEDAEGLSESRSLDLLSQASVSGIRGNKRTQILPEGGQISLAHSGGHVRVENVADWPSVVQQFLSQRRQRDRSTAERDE

[11] = target: Mucolipin-3 (Homo sapiens, UniProt Q8TDD5); experiment: Dose response cell-based high-throughput screening assay for agonists of the transient receptor potential channel ML3 (TRPML3). [Related pubchem assays: 1526, 1424, 1448 ]; assay type: functional
Sequence of Mucolipin-3 (Q8TDD5 whole entry): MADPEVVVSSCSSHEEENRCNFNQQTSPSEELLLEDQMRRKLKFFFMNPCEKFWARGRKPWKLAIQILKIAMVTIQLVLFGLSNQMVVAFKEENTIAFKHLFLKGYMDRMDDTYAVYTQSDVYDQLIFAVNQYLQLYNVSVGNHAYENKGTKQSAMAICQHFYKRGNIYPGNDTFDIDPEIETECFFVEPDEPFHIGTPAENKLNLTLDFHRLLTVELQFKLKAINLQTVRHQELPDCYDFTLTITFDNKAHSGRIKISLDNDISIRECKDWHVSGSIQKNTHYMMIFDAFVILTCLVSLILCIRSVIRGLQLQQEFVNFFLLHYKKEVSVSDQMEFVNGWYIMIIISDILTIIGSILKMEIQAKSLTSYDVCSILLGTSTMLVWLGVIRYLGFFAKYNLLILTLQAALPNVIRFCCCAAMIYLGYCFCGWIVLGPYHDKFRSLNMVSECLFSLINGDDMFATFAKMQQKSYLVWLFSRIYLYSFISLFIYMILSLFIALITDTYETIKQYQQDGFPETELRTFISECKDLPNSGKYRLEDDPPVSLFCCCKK

[12] = target: T3, Neuropeptide Y receptor type 2 (Homo sapiens, UniProt P49146); experiment: Fluorescence-based cell-based high-throughput dose response assay for agonists of NPY-Y2. [Related pubchem assays: 1703 (Screening assay (CNGC inhibitors).), 1359 (Screening assay (NPY-Y2 potentiators or agonists).), 1304 (Screening assay (NPY-Y1 potentiators or agonists).), 1710 (Screening assay (NPY-Y2 agonists).), 1791 (Summary AID.)]; assay type: functional
T3 sequence (P49146 whole entry): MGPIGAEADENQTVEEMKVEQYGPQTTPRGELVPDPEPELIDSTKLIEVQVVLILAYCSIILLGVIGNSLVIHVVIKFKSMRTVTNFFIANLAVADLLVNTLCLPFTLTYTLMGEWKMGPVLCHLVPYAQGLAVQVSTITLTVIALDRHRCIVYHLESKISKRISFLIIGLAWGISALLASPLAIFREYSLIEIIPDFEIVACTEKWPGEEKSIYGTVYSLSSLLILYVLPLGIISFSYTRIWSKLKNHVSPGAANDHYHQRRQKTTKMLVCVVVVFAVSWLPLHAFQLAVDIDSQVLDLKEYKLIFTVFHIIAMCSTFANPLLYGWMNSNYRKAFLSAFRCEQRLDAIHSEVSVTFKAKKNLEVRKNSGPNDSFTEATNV

[13] = target: T4, Neuropeptide Y receptor type 1 (Homo sapiens, UniProt P25929); experiment: Fluorescence-based counterscreen for agonists of NPY-Y2: cell-based high-throughput dose response assay for agonists of NPY-Y1.; assay type: functional
T4 sequence (P25929 whole entry): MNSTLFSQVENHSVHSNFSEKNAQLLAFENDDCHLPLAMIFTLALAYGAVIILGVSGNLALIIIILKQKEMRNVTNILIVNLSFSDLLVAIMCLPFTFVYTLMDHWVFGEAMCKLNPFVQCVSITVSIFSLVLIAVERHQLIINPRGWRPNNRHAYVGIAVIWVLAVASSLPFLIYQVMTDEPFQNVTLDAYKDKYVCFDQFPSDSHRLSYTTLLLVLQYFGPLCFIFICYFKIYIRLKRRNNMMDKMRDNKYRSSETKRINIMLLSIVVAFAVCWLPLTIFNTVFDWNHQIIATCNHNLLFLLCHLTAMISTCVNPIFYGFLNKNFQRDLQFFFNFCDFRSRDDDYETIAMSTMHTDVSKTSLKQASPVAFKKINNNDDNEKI

[14] = target: T3, Neuropeptide Y receptor type 2; experiment: Fluorescence-based cell-based high-throughput dose response assay for potentiators or agonists of NPY-Y2. [Related pubchem assays: 1539 (Screening assay (NPY-Y2 potentiators or agonists).), 1703 (Screening assay (CNGC inhibitors).), 1359 (Screening assay (NPY-Y2 potentiators or agonists).), 1304 (Screening assay (NPY-Y1 potentiators or agonists).) …; assay type: functional
[15] = target: Photoreceptor-specific nuclear receptor (Homo sapiens, UniProt Q9Y5X4); assay type: functional, cell-based;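 note: CHO-S cells with Gal4-NCOR and VP16-NR2E3 two-hybrid luciferase reporter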
Sequence of Photoreceptor-specific nuclear receptor (Q9Y5X4 whole entry, the tested form may be a part): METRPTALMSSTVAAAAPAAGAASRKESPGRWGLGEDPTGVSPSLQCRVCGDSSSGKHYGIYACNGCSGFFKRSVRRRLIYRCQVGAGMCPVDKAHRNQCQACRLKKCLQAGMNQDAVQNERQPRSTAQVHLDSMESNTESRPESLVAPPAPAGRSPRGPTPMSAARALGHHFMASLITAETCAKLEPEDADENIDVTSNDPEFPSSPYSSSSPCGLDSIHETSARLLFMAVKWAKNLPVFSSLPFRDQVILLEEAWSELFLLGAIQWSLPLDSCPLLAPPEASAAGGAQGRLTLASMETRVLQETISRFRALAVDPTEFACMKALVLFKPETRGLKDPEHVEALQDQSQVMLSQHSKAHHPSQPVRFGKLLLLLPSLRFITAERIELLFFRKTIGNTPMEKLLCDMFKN

[16] = target: T4, Neuropeptide Y receptor type 1; experiment: Fluorescence-based counterscreen for potentiators or agonists of NPY-Y2: cell-based high-throughput dose response assay for potentiators or agonists of NPY-Y1.; assay type: functional
[17] = target: T5, Streptokinase A (Streptococcus pyogenes serotype M1, UniProt P10520); experiment: S. pyogenes streptokinase expression inhibitors, potency, dose response, plasminogen activation absorbance, OD405 (AID 1914); assay type: functional, Streptococcus pyogenes M1 GAS;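 note: secreted streptokinase activity via plasminogen activation per viability signal from cell pellet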
T5 sequence (P10520 whole entry): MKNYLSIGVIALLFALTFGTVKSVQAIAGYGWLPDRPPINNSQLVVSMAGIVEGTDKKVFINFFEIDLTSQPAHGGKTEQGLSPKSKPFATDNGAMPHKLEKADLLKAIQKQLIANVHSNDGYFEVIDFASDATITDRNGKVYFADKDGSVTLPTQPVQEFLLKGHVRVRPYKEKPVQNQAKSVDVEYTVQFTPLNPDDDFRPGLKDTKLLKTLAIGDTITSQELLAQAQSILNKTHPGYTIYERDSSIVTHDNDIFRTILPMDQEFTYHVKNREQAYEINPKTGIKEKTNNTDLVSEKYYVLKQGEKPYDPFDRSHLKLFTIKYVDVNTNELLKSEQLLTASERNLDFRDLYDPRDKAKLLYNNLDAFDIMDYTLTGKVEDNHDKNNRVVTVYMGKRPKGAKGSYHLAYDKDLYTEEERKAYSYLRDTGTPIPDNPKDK

[18] = target: T6, Protein RecA (Mycobacterium tuberculosis, UniProt P9WHJ3); experiment: Fluorescence Cell-Free Homogeneous Dose Retest to Identify Inhibitors of RecA-Intein Splicing Activity. [Related pubchem assays (depositor defined):AID2097, AID2223, AID489010, AID492950]; assay type: functional
T6 sequence (P9WHJ3 whole entry): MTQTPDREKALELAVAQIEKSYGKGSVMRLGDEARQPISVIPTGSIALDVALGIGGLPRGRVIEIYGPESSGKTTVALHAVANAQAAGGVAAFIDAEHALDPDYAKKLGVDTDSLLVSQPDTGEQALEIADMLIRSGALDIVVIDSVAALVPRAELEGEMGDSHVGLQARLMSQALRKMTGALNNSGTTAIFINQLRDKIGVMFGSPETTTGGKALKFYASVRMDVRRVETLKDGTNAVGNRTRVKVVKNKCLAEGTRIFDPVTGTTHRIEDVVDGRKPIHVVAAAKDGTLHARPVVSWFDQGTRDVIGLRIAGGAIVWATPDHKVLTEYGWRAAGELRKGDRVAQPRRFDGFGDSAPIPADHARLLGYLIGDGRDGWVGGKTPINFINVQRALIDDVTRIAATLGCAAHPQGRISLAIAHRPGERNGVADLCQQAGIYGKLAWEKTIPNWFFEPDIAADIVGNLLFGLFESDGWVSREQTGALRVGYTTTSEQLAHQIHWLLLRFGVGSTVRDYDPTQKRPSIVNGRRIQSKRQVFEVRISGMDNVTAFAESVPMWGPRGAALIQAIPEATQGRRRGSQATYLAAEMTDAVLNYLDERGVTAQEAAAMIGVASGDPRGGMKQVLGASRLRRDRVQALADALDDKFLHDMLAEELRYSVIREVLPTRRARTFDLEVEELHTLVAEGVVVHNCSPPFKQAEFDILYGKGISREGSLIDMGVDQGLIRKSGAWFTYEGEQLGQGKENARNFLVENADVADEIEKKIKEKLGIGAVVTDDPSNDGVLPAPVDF

[19] = target: T7, Replicative DNA helicase DnaB (Mycobacterium tuberculosis, UniProt P9WMR3); experiment: DnaB intein splicing inhibitors, dose response, biochemical, cell-free fluorescence (AID 449749); assay type: functional
T7 sequence (P9WMR3 whole entry): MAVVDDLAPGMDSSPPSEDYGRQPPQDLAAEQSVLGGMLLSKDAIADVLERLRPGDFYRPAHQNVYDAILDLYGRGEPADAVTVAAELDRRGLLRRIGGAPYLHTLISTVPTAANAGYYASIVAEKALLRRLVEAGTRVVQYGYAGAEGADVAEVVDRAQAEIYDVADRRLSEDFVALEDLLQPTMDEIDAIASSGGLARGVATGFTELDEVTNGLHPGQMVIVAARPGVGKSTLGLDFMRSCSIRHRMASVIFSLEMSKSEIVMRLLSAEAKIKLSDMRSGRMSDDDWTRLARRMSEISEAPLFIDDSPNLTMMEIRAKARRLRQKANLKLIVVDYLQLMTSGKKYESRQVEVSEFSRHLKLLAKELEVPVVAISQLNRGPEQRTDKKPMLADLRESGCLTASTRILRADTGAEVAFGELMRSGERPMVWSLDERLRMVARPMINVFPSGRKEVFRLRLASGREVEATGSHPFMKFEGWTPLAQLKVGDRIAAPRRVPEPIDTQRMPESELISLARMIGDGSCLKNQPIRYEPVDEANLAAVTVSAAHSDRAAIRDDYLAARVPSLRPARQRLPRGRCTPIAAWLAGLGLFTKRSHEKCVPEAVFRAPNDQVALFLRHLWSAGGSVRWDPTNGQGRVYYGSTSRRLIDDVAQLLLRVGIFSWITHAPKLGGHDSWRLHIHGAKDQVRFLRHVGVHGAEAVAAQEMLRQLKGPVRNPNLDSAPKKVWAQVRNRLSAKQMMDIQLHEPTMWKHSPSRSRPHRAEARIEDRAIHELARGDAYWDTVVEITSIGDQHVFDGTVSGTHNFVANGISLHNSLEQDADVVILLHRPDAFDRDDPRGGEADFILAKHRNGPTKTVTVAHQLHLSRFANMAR

Sequence of Bcl-2-like protein 10 (Q9HD36 whole entry): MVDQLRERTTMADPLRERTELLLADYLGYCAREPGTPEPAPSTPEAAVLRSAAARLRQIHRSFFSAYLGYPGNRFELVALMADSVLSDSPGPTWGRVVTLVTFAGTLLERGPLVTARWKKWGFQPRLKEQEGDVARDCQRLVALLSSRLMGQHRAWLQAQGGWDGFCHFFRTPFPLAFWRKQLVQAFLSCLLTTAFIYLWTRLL

For `O=C(c1cnccn1)N1CCc2ccccc21`, the IC50 [1] was 23.7 µM (active) and the IC50 [2] was < 0.023 µM (not active).
For `Cc1nc2ccccn2c1C(=O)N/N=C/c1ccc([N+](=O)[O-])o1`, the AC50 [3] was 8.03 µM (active), the EC50 [4] was 10.9 µM (active) and the EC50 [5] was 0.139 µM (active). For the same molecule, the IC50 [6] was 5.79 µM (active), the IC50 [7] was 13.2 µM (not active) and the EC50 [8] was > 160 µM (inactive). For the same molecule, the IC50 [9] was 55.2 µM (not active).
In the case of `Cc1onc(-c2ccc(Cl)cc2)c1-c1ccnn1S(=O)(=O)c1cccc(C(F)(F)F)c1`, the EC50 [10] is reported as > 29.9 µM (not active) and the EC50 [11] is reported as 4.26 µM (active).
In the case of `O=[N+]([O-])c1cc(C(F)(F)F)cc([N+](=O)[O-])c1NCCNC(=S)Nc1ccc(Cl)c(Cl)c1`, the EC50 [12] is reported as 8.24 µM (active), the EC50 [13] is reported as 6 µM (active) and the EC50 [14] is reported as 8.69 µM (active). The IC50 [15] was 7.03 µM (active), the EC50 [16] was 11.2 µM (not active) and the EC50 [17] was 7.06 µM (inconclusive). For the same molecule, the EC50 [18] was 303 µM (active) and the AC50 [19] was 4.92 µM (active).
